In ChEMBL document CHEMBL1137847, “3-D-QSAR of N-substituted 4-amino-3,3-dialkyl-2(3H)-furanone GABA receptor modulators using molecular field analysis and receptor surface modelling study” (Bioorg Med Chem Lett, 2004):

Molecular target: GABA-A receptor; anion channel (Homo sapiens) (UniProt P14867+P47870+P18507+P28472+P48169+Q99928+Q9UN88+P34903+O00591+O14764+Q8N1C3+P18505+P78334+P47869+P31644+Q16445)
Experiment: Gamma-aminobutyric acid A receptor modulating activity (expressed as biological activity).
Type: protein-complex assay

Row | SMILES | BA
1 | CCCC1(CCC)C(=O)OC[C@H]1NS(=O)(=O)c1ccc(C(F)(F)F)cc1 | -44
2 | CCCC1(CCC)C(=O)OC[C@H]1NC(=O)OCc1ccccc1 | 104
3 | C=CC[C@@H]1C(=O)OC[C@H]1NCc1ccccc1 | -1
4 | CCCC1(CCC)C(=O)OC[C@H]1NS(=O)(=O)c1ccc(OC)cc1 | -22
5 | C=CCOC(=O)N[C@@H]1COC(=O)C1(CCC)CCC | 765
6 | CCCC1(CCC)C(=O)OC[C@H]1NS(=O)(=O)c1ccc(Cl)cc1 | 23
7 | CCCC1(CCC)C(=O)OC[C@H]1NC(=O)Oc1ccccc1 | 330
8 | O=C1C[C@H](NCc2ccccc2)CO1 | 0
9 | CCCC1(CCC)C(=O)OCC1NC(=O)OCc1ccccc1 (single isomer, unassigned) | 279
10 | CCCC1(CCC)C(=O)OC[C@H]1NC(=O)OC(C)(C)C | 46
11 | CCCC1(CCC)C(=O)OC[C@H]1NC(=O)OCC | 426
12 | C=CC[C@H]1C(=O)OC[C@H]1NCc1ccccc1 | 73
13 | CCCC1(CCC)C(=O)OC[C@H]1NS(=O)(=O)N(C)C | -1
14 | C=CCC1(CC=C)C(=O)OC[C@H]1NCc1ccccc1 | 115
15 | CCCC1(CCC)C(=O)OC[C@H]1NS(=O)(=O)c1ccc2ccccc2c1 | 4
16 | O=C1C[C@H](NC(=O)OCc2ccccc2)CO1 | 47
17 | CCCC1(CCC)C(=O)OC[C@H]1NS(=O)(=O)c1cccs1 | -16
18 | CCCC1(CCC)C(=O)OC[C@H]1NC(=O)c1ccccc1 | 420
